pEC50: −log10 of the molar value. Values after ≈ are worked out from the molar mass of the structure shown.
What was measured:
physchem = settings: kinetic from dmso stock
[1] = target: human soluble guanylate cyclase alpha 1 and beta 1 subunits (sGC) (Homo sapiens (Human), UniProt Q02108+Q02153); assay: sGC cellular activator assay (cGMP, HTRF), in the presence and absence of 50% human serum; format: cell-based; settings: CHO cells stably expressing human sGC alpha 1/beta 1, preincubated with 40 microM ODQ; cGMP by HTRF; Table 2 does not state whether with or without 50% human serum
Method in brief: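 First, CHO-sGC (human α1β1) cells get 1 h ODQ at 40 microM with IBMX and 0.1% BSA. Finally, cGMP is quantified by HTRF and EC50 computed.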

[2] = Human liver microsome (HLM) metabolic stability assay; format: in vitro ADME; settings: human liver microsomes
Method in brief: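 Remaining parent measured by LC/MS/MS (ESI, MRM) at 5, 15, 30 and 60 min relative to 0 min. Incubation: 1 uM compound, HLMs, NADPH-started, 37° C., 60 min total, single replicate. Slope of ln(% remaining) gives t1/2 = 0.693/slope, then CLint, CLh and % Qh.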

[3] = pH 2.2, aqueous buffer, Solubility (pH 2.2)
[4] = pH 4.5, aqueous buffer, Solubility (pH 4.5)
[5] = pH 6.8, aqueous buffer, Solubility (pH 6.8)

Sequence of human soluble guanylate cyclase alpha 1 and beta 1 subunits (sGC) (Q02108 whole entry partner): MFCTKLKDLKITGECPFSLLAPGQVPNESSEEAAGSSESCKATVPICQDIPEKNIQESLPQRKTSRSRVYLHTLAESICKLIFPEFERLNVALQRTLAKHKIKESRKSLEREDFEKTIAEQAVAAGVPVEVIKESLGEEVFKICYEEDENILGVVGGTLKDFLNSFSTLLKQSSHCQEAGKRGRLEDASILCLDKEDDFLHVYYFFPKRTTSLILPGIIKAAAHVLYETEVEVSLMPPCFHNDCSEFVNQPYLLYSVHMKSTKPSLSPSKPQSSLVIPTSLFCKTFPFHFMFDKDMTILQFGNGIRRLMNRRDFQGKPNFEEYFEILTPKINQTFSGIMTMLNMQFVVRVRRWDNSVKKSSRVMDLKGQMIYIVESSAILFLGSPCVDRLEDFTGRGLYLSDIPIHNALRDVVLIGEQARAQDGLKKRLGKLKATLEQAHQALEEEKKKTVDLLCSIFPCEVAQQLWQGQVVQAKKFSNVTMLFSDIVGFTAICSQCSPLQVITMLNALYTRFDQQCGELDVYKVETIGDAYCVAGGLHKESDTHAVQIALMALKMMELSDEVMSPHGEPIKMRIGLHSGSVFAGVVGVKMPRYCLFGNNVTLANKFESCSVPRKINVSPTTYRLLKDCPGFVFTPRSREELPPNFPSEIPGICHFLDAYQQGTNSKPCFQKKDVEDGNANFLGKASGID
Sequence of human soluble guanylate cyclase alpha 1 and beta 1 subunits (sGC) (Q02153 whole entry): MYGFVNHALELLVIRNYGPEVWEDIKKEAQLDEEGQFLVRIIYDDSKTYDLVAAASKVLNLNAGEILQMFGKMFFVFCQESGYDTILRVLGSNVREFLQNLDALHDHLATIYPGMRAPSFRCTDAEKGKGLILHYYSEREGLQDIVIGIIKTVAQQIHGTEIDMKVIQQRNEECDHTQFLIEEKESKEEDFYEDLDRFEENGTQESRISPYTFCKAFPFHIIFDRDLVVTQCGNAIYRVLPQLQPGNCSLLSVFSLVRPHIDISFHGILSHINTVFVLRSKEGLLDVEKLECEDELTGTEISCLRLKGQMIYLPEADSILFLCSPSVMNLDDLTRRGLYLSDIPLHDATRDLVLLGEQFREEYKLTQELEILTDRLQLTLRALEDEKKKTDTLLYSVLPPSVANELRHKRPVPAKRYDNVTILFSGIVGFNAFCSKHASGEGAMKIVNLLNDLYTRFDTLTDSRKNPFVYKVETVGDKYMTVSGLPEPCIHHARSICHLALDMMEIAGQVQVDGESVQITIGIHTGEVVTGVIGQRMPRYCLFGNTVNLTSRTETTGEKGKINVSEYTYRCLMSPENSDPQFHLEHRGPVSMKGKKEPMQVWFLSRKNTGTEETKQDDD

Structure (SMILES)	solubility at 24 h (physchem; [3]) [µg/mL]	solubility at 24 h (physchem; [4]) [µg/mL]	solubility at 24 h (physchem; [5]) [µg/mL]	pEC50 [1]	Metabolic stability (Qh %), % hepatic blood flow [2] [%]
CO[C@H]1CN(c2cccc(-c3cccc(C)c3OCc3cc(F)c4c(c3)CCN(C3CCOCC3)CC4)n2)CC[C@H]1C(=O)O [Compound 273]	120 (≈ 198 µM)	80.7 (≈ 134 µM)	64.3 (≈ 107 µM)	8.30	<24
Cc1cc(COc2c(C)cccc2-c2ccnc(N3C[C@@H]4C[C@]4(C(=O)O)C3)n2)cc2c1CN(C1CCOCC1)CC2 [Compound 190]	99 (≈ 178 µM)	71 (≈ 128 µM)	74 (≈ 133 µM)	7.77	<24
Cc1cccc(-c2csc(N3CC[C@@]4(C(=O)O)C[C@H]4C3)n2)c1OCc1ccc2c(c1C)CCN(CC1COCCO1)C2 (stereo partly shown) [Compound 86]	120 (≈ 203 µM)	71 (≈ 120 µM)	57 (≈ 96.6 µM)	8.70	41
CO[C@H]1CN(c2nc(-c3cccc(C)c3OCc3cc(C)c4c(c3)CCN(CC3COCCO3)C4)cs2)CC[C@H]1C(=O)O (stereo partly shown) [Compound 168]	130 (≈ 214 µM)	87 (≈ 143 µM)	81 (≈ 133 µM)	7.28	<24
Cc1ccc(OCc2cc(C)c3c(c2C)CCN(CC2COCCO2)C3)c(-c2csc(N3CC[C@@]4(C(=O)O)C[C@H]4C3)n2)c1 (stereo partly shown) [Compound 127]	130 (≈ 215 µM)	17 (≈ 28.2 µM)	0.77 (≈ 1.28 µM)	8.52	<24
CO[C@@H]1CN(c2nc(-c3cccc(Cl)c3OCc3ccc4c(c3)[C@@H](C)CN(C3CCOCC3)CC4)cs2)CC[C@@H]1C(=O)O [Compound 332]	127 (≈ 202 µM)	86.6 (≈ 138 µM)	76.8 (≈ 123 µM)	7.82	<24
Cc1cccc(-c2csc(N3C[C@@H]4C[C@]4(C(=O)O)C3)n2)c1OCc1ccc2c(c1C)CCN(C1CCC1)C2 [Compound 137]	100 (≈ 189 µM)	71 (≈ 134 µM)	51 (≈ 96.3 µM)	7.17	32
Cc1c(COc2ccccc2-c2ccnc(N3CC[C@@]4(C(=O)O)C[C@H]4C3)n2)ccc2c1CCN(C1CCOCC1)C2 [Compound 185]	100 (≈ 180 µM)	43 (≈ 77.5 µM)	42 (≈ 75.7 µM)	7.68	33
COC[C@H]1N(c2cccc(-c3cccc(C)c3OCc3ccc4c(c3C)CN(C3CCOCC3)C4)n2)C[C@@H]2C[C@@]21C(=O)O [Compound 223]	145 (≈ 248 µM)	140 (≈ 239 µM)	132 (≈ 226 µM)	7.64	<24
CO[C@H]1CN(c2cccc(-c3cccc(C)c3OCc3ccc4c(c3)CCN(C3CCOCC3)C4)n2)CC[C@H]1C(=O)O [Compound 64, (3R,4R)-3-Methoxy-6′-{3-methyl-2-[2-(tetrahydro-pyran-4-yl)-1,2,3,4-tetrahydro-isoquinolin-6-ylmethoxy]-phenyl}-3,4,5,6-tetrahydro-2H-[1,2′]bipyridinyl-4-carboxylic acid]	100 (≈ 175 µM)	88 (≈ 154 µM)	69 (≈ 121 µM)	7.44	29
Cc1ccc(OCc2ccc3c(c2C)CCN(C2CCOCC2)C3)c(-c2csc(N3C[C@@H]4C[C@]4(C(=O)O)C3)n2)c1 [Compound 146]	110 (≈ 197 µM)	59 (≈ 105 µM)	9.9 (≈ 17.7 µM)	7.24	26

Now from value to compound:

solubility at 24 h (physchem; [3]) [µg/mL]	solubility at 24 h (physchem; [4]) [µg/mL]	solubility at 24 h (physchem; [5]) [µg/mL]	pEC50 [1]	Metabolic stability (Qh %), % hepatic blood flow [2] [%]	Structure (SMILES)
118 (≈ 194 µM)	67.5 (≈ 111 µM)	2.9 (≈ 4.77 µM)	7.85	26	COc1cc(COc2ccc(C)cc2-c2csc(N3CC[C@@H](C(=O)O)[C@@H](OC)C3)n2)cc2c1CN(C1CCOCC1)CC2 [Compound 254]
144 (≈ 241 µM)	139 (≈ 233 µM)	134 (≈ 224 µM)	7.09	<24	COC[C@H]1N(c2cccc(-c3cc(C)ccc3OCc3ccc4c(c3C)CCN(C3CCOCC3)C4)n2)C[C@@H]2C[C@@]21C(=O)O [Compound 218]
110 (≈ 204 µM)	82 (≈ 152 µM)	32 (≈ 59.3 µM)	8.10	63	Cc1ccc(OCc2ccc3c(c2C)CCN(C2COC2)C3)c(-c2cccc(N3CC[C@@]4(C(=O)O)C[C@H]4C3)n2)c1 [Compound 19]
120 (≈ 217 µM)	110 (≈ 199 µM)	70 (≈ 126 µM)	7.96	<24	Cc1cccc(-c2cccc(N3C[C@@H]4C[C@]4(C(=O)O)C3)n2)c1OCc1ccc2c(c1C)CCN(C1CCOCC1)C2 [Compound 21]
130 (≈ 215 µM)	90 (≈ 149 µM)	79 (≈ 130 µM)	8.30	<24	CCc1cc(COc2c(C)cccc2-c2csc(N3CC[C@@H](C(=O)O)[C@@H](OC)C3)n2)cc2c1CN(C1CCOCC1)CC2 [Compound 170]
110 (≈ 186 µM)	72 (≈ 122 µM)	5.1 (≈ 8.62 µM)	7.85	<24	CO[C@H]1CN(c2nc(-c3cc(C)ccc3OCc3ccc4c(c3C)CCN(C3CCOCC3)C4)cs2)CC[C@H]1C(=O)O [Compound 178]
136 (≈ 221 µM)	96.6 (≈ 157 µM)	72.7 (≈ 118 µM)	7.47	<24	COC[C@H]1N(c2cccc(-c3cccc(F)c3OCc3ccc4c(c3C)CCN(C3CCOCC3)CC4)n2)C[C@@H]2C[C@@]21C(=O)O [Compound 212]
120 (≈ 203 µM)	4.3 (≈ 7.27 µM)	0.73 (≈ 1.23 µM)	7.34	<24	CO[C@H]1CN(c2nc(-c3cc(C)ccc3OCc3cc(C)c4c(c3)CCN(C3CCOCC3)C4)cs2)CC[C@H]1C(=O)O [Compound 180]
110 (≈ 204 µM)	96 (≈ 178 µM)	64 (≈ 119 µM)	7.68	<24	Cc1cccc(-c2cccc(N3C[C@@H]4C[C@]4(C(=O)O)C3)n2)c1OCc1ccc2c(c1)CCN(C1CCOCC1)C2 [Compound 20]
94 (≈ 172 µM)	53 (≈ 97.1 µM)	65 (≈ 119 µM)	7.43	<24	Cc1cc(COc2c(C)cccc2-c2csc(N3C[C@H]4C[C@@]4(C(=O)O)[C@@H]3C)n2)cc2c1CN(C1COC1)CC2 [Compound 158]
110 (≈ 215 µM)	90 (≈ 176 µM)	58 (≈ 113 µM)	7.96	<24	O=C(O)[C@@]12CCN(c3cccc(-c4ccccc4OCc4ccc5c(c4)CCN(C4COC4)C5)n3)C[C@@H]1C2 [Compound 2]
118 (≈ 207 µM)	108 (≈ 189 µM)	87.9 (≈ 154 µM)	6.61	<24	Cc1cccc(-c2cccc(N3CC4OCC3C4C(=O)O)n2)c1OCc1ccc2c(c1C)CCN(C1CCOCC1)C2 (stereo not shown) [Compound 214]

Reference: patent US9353090B2, “Heterocyclic carboxylic acids as activators of soluble guanylate cyclase” (Boehringer Ingelheim International GmbH, priority 2014, dated 2016)
